The record followed here is ChEMBL document CHEMBL1201862, “PubChem BioAssay data set” (2004).

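1) Cells in 96-well plates. 2) Compound, 48 h, 5 concentrations. 3) Linear interpolation between surrounding doses. 4) Unreached endpoint = highest concentration. GI50 marks 50% less growth.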 The source made the active and inactive calls. Cut-off read from the data, not from the text of the source: active = GI50 up to about 1.1 µM and inactive = higher.

Test systems include CCRF-CEM; COLO 205; DU-145; EKVX; HOP-62; HOP-92; KM12; MCF7; MDA-MB-231; MDA-MB-435; NCI-H460; PC-3; SF-268; SF-295; SK-MEL-2; SK-OV-3; SNB-19; T47D; U-251; UO-31.
Common to all, as to test: growth of human tumour cells (NCI), 48 h

As for `Cc1ccc(NC(=O)CC(=O)n2nc(C)c(/N=N/c3cccc(C)c3)c2C)cc1`, the GI50 with CCRF-CEM was 86.3 µM (inactive); with COLO 205 it was > 100 µM (inactive); in the test on DU-145 it was > 100 µM (inactive); in the test on EKVX, 31 µM (inactive); in the test on HOP-62, 65.8 µM (inactive); in the test with HOP-92, 14 µM (inactive). Moreover, the GI50 in the test on KM12, in the test with MCF7, in the test with MDA-MB-231, in the test with MDA-MB-435, with NCI-H460 and in the test on PC-3 was > 100 µM (inactive) throughout. Moreover, the GI50 with SF-268 was 69 µM (inactive); in the test on SF-295, > 100 µM (inactive); in the test on SK-MEL-2, > 100 µM (inactive); in the test on SK-OV-3, > 100 µM (inactive); in the test with SNB-19, 71.1 µM (inactive); in the test with T47D, > 100 µM (inactive). For the same molecule, the GI50 in the test on U-251 and with UO-31 was > 100 µM (inactive) each time.

For `Oc1c(O)c(Cc2ccccc2)c(Cc2ccccc2)c(Cc2ccccc2)c1Cc1ccccc1`, the GI50 in the test on CCRF-CEM, in the test with COLO 205, in the test with DU-145, with EKVX, in the test with HOP-62 and in the test on HOP-92 was > 10 µM (inactive) each time. In addition, the GI50 in the test with KM12, with MCF7, with MDA-MB-231, in the test with MDA-MB-435, in the test with NCI-H460 and in the test with PC-3 was > 10 µM (inactive) in each case. The GI50 in the test on SF-268, in the test with SF-295, with SK-MEL-2, with SK-OV-3, with SNB-19 and in the test with T47D was > 10 µM (inactive) in each case. Also, the GI50 in the test on U-251 and in the test with UO-31 was > 10 µM (inactive) each time.

For the molecule `ON[C@H]1C[C@@H](n2cnc3c(NC4CC4)ncnc32)[C@H](O)[C@@H]1O`, the GI50 with CCRF-CEM, with COLO 205, with DU-145, in the test with EKVX, in the test on HOP-62 and in the test on HOP-92 was > 100 µM (inactive) throughout. Further, the GI50 in the test with KM12, in the test on MCF7, with MDA-MB-231, with MDA-MB-435, in the test on NCI-H460 and in the test on PC-3 was > 100 µM (inactive) each time. For the same molecule, the GI50 in the test on SF-268, in the test with SF-295, with SK-MEL-2, with SK-OV-3, in the test with SNB-19 and with T47D was > 100 µM (inactive) throughout. The GI50 in the test with U-251 and in the test with UO-31 was > 100 µM (inactive) each time.

As to `O=C1c2ccccc2C(=O)c2c1oc1cc(O)c(Cl)cc21`, the GI50 with CCRF-CEM is 8.71 µM (inactive); in the test on COLO 205, 1.72 µM (inactive); in the test on DU-145 it was 4.89 µM (inactive); in the test with EKVX, 8.75 µM (inactive); with HOP-62, 10.7 µM (inactive); with HOP-92, 8.13 µM (inactive). The GI50 with KM12 is 6.35 µM (inactive); in the test on MCF7, 8.11 µM (inactive); with MDA-MB-231 it was 12.8 µM (inactive); in the test on MDA-MB-435, 1.81 µM (inactive); in the test with NCI-H460, 3.04 µM (inactive); in the test on PC-3, 10.4 µM (inactive). Besides, the GI50 with SF-268 was 10.8 µM (inactive); in the test on SF-295, 2.8 µM (inactive); with SK-MEL-2, 1.99 µM (inactive); with SK-OV-3, 17.2 µM (inactive); in the test on SNB-19, 8.81 µM (inactive); with T47D, 16.5 µM (inactive). Moreover, the GI50 in the test on U-251 was 5.36 µM (inactive); with UO-31, 11.9 µM (inactive).

Consider `N#Cc1ccc(Oc2nc3ccc(C(F)(F)F)cc3nc2-c2ccccc2)cc1`, for which the GI50 in the test with CCRF-CEM is 20.4 µM (inactive); in the test with COLO 205, 21.5 µM (inactive); in the test on DU-145, 17.8 µM (inactive); with EKVX it was 14.3 µM (inactive); with HOP-62, 20.3 µM (inactive); in the test with HOP-92 it was 12.6 µM (inactive). In addition, the GI50 with KM12 is 20.5 µM (inactive); with MCF7, 20.4 µM (inactive); in the test with MDA-MB-231 it was 14.5 µM (inactive); with MDA-MB-435, 17.7 µM (inactive); in the test on NCI-H460, 17.6 µM (inactive); in the test on PC-3 it was 14 µM (inactive). For the same molecule, the GI50 was 24.9 µM (inactive) in the test on SF-268; 24.8 µM (inactive) in the test with SF-295; 19.5 µM (inactive) with SK-MEL-2; 12.5 µM (inactive) in the test on SK-OV-3; 21.8 µM (inactive) in the test with SNB-19; 16.7 µM (inactive) in the test on T47D. The GI50 with U-251 and in the test with UO-31 was 17.2 µM (inactive) throughout.

On to `Cc1c2c(OCC(O)CN3CCN(c4ccccc4)CC3)nn(C)c(=O)c2c(C)n1-c1ccccc1` (stereo not given), for which the GI50 in the test on CCRF-CEM is 31.2 µM (inactive); in the test on COLO 205, 20.3 µM (inactive); with DU-145, 37.9 µM (inactive); in the test on EKVX, 34.8 µM (inactive); with HOP-62 it was 39.6 µM (inactive); in the test on HOP-92, 44.4 µM (inactive). Moreover, the GI50 with KM12 was 29.3 µM (inactive); in the test on MCF7 it was 18.4 µM (inactive); in the test with MDA-MB-231, 25.6 µM (inactive); in the test on MDA-MB-435, 29.4 µM (inactive); in the test on NCI-H460, 25 µM (inactive); in the test on PC-3, 22 µM (inactive). Also, the GI50 is 26.2 µM (inactive) with SF-268; 21.5 µM (inactive) in the test with SF-295; 17.9 µM (inactive) in the test on SK-MEL-2; 43 µM (inactive) in the test on SK-OV-3; 34.3 µM (inactive) in the test on SNB-19; 27.5 µM (inactive) with T47D. Besides, the GI50 is 16.6 µM (inactive) in the test with U-251 and 18.9 µM (inactive) in the test on UO-31.

Take `CCOC(=O)/C=C(\C)Sc1cc(O)c2ccccc2c1O`: the GI50 in the test on CCRF-CEM is 6.64 µM (inactive); in the test with COLO 205, 17.3 µM (inactive); in the test with DU-145, 9.02 µM (inactive); in the test on EKVX it was 27.9 µM (inactive); in the test on HOP-62, 20.2 µM (inactive); in the test on HOP-92 it was 21.2 µM (inactive). For the same molecule, the GI50 with KM12 is 28.6 µM (inactive); with MCF7, 13.9 µM (inactive); in the test on MDA-MB-231, 16.4 µM (inactive); in the test with MDA-MB-435 it was 2.65 µM (inactive); in the test on NCI-H460, 19.5 µM (inactive); in the test with PC-3, 26.4 µM (inactive). The GI50 in the test with SF-268 is 11 µM (inactive); in the test on SF-295, 24.6 µM (inactive); in the test on SK-MEL-2, 20.9 µM (inactive); in the test on SK-OV-3, 34.4 µM (inactive); with SNB-19, 14.4 µM (inactive); in the test on T47D, 2.94 µM (inactive). Also, the values for the GI50 in the test on U-251 and with UO-31 were 20.3 µM (inactive) and 4.51 µM (inactive), respectively.

With `ClCC[N+]12CC[N+](CCCl)(CC1)C2`, the GI50 with CCRF-CEM, in the test with COLO 205, in the test on DU-145, in the test with EKVX, with HOP-62 and with HOP-92 was > 100 µM (inactive) each time. Moreover, the GI50 with KM12 was > 100 µM (inactive); in the test on MCF7, > 100 µM (inactive); in the test with MDA-MB-231 it was > 100 µM (inactive); in the test on MDA-MB-435, > 100 µM (inactive); in the test on NCI-H460 it was > 87.7 µM (inactive); in the test on PC-3, > 100 µM (inactive). For the same molecule, the GI50 with SF-268, in the test with SF-295, with SK-MEL-2, in the test on SK-OV-3, with SNB-19 and with T47D was > 100 µM (inactive) in each case. The GI50 with U-251 and in the test with UO-31 was > 100 µM (inactive) each time.

Take `CNC(=O)/C=C/C1=CN2C(=O)c3ccc(C)c(O)c3NC(OC)C2C1` (stereo not given): the GI50 in the test with CCRF-CEM is < 0.0247 µM (active); in the test with COLO 205 it was 0.0136 µM (active); with DU-145, < 0.01 µM (active); in the test on EKVX, 0.0163 µM (active); in the test with HOP-62, < 0.0143 µM (active); with HOP-92, 0.0166 µM (active). Moreover, the GI50 in the test on KM12 is < 0.0139 µM (active); in the test on MCF7 it was < 0.0163 µM (active); with MDA-MB-231 it was < 0.01 µM (active); in the test with MDA-MB-435 it was < 0.0133 µM (active); in the test with NCI-H460, 0.0135 µM (active); in the test with PC-3, < 0.016 µM (active). Besides, the GI50 was < 0.0154 µM (active) in the test with SF-268; 0.0168 µM (active) in the test with SF-295; 0.0125 µM (active) in the test on SK-MEL-2; < 0.0206 µM (active) in the test with SK-OV-3; < 0.0152 µM (active) in the test with SNB-19; < 0.0181 µM (active) in the test on T47D. In addition, the GI50 in the test on U-251 was < 0.0161 µM (active); in the test on UO-31 it was < 0.0143 µM (active).

With `O=C(c1ccccc1)c1c(-c2ccccc2)n(-c2ccccc2)[nH]c(=O)c1=O`, the GI50 in the test on CCRF-CEM is 15.5 µM (inactive); with COLO 205, 75.2 µM (inactive); in the test on DU-145, > 100 µM (inactive); in the test with EKVX, 55.5 µM (inactive); in the test on HOP-62, 28.8 µM (inactive); in the test with HOP-92, 31.2 µM (inactive). The GI50 in the test with KM12 was 54.3 µM (inactive); in the test on MCF7, 46.7 µM (inactive); with MDA-MB-231 it was 20.2 µM (inactive); with MDA-MB-435 it was 28.2 µM (inactive); in the test on NCI-H460 it was 44.7 µM (inactive); in the test on PC-3, 18.9 µM (inactive). Also, the GI50 is 48.6 µM (inactive) with SF-268; 28.2 µM (inactive) in the test with SF-295; 24 µM (inactive) in the test with SK-MEL-2; 34.2 µM (inactive) in the test with SK-OV-3; 88.3 µM (inactive) in the test with SNB-19; > 100 µM (inactive) with T47D. Further, the GI50 with U-251 is 44.5 µM (inactive); in the test on UO-31, 48.4 µM (inactive).
